Experimental data from PubChem BioAssay (NCI).
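Dose response: 5 concentrations. Exposure: 48 h. Format: 96-well plates. Endpoint: linear interpolation; highest concentration if not reached. The concentration for full growth arrest is given as TGI.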

How the values were obtained:
Assay in all cases: NCI-60 cell line screen, 48 h
NCI-H522 lung = test system: NCI-H522 lung
TK-10 renal = test system: TK-10 renal
UO-31 renal = test system: UO-31 renal
NCI/ADR-RES ovarian = test system: NCI/ADR-RES ovarian
MDA-N = test system: MDA-N
SF-539 CNS = test system: SF-539 CNS
HL-60(TB) leukemia = test system: HL-60(TB) leukemia
SN12C renal = test system: SN12C renal
HCT-116 colon = test system: HCT-116 colon
HS 578T breast = test system: HS 578T breast
DU-145 prostate = test system: DU-145 prostate
NCI-H226 lung = test system: NCI-H226 lung
SNB-75 CNS = test system: SNB-75 CNS
OVCAR-4 ovarian = test system: OVCAR-4 ovarian
K-562 leukemia = test system: K-562 leukemia
MALME-3M melanoma = test system: MALME-3M melanoma
OVCAR-8 ovarian = test system: OVCAR-8 ovarian
KM12 colon = test system: KM12 colon
U251 CNS = test system: U251 CNS
OVCAR-3 ovarian = test system: OVCAR-3 ovarian
HOP-62 NSCLC = test system: HOP-62 NSCLC
HOP-92 NSCLC = test system: HOP-92 NSCLC
A498 renal = test system: A498 renal
IGROV1 ovarian = test system: IGROV1 ovarian
SR leukemia = test system: SR leukemia
CCRF-CEM leukemia = test system: CCRF-CEM leukemia
HCT-15 colon = test system: HCT-15 colon
MOLT-4 leukemia = test system: MOLT-4 leukemia
OVCAR-5 ovarian = test system: OVCAR-5 ovarian
COLO 205 colon = test system: COLO 205 colon
MDA-MB-231 breast = test system: MDA-MB-231 breast
PC-3 prostate = test system: PC-3 prostate
SF-268 CNS = test system: SF-268 CNS
A549 NSCLC = test system: A549 NSCLC
M14 melanoma = test system: M14 melanoma
BT-549 breast = test system: BT-549 breast
HT29 colon = test system: HT29 colon
RPMI-8226 leukemia = test system: RPMI-8226 leukemia
EKVX NSCLC = test system: EKVX NSCLC
MDA-MB-435 = test system: MDA-MB-435
SW-620 colon = test system: SW-620 colon
RXF 393 renal = test system: RXF 393 renal
CAKI-1 renal = test system: CAKI-1 renal
ACHN renal = test system: ACHN renal
SK-MEL-5 melanoma = test system: SK-MEL-5 melanoma
SK-MEL-2 melanoma = test system: SK-MEL-2 melanoma
SK-OV-3 ovarian = test system: SK-OV-3 ovarian
UACC-257 melanoma = test system: UACC-257 melanoma
MCF7 breast = test system: MCF7 breast
NCI-H460 lung = test system: NCI-H460 lung
SNB-19 CNS = test system: SNB-19 CNS
HCC-2998 colon = test system: HCC-2998 colon
UACC-62 melanoma = test system: UACC-62 melanoma
NCI-H23 lung = test system: NCI-H23 lung
786-0 renal = test system: 786-0 renal
SF-295 CNS = test system: SF-295 CNS
SK-MEL-28 melanoma = test system: SK-MEL-28 melanoma
LOX IMVI melanoma = test system: LOX IMVI melanoma
T-47D breast = test system: T-47D breast

Measured: TGI

Cc1cn(C2CC(N=[N+]=[N-])C(C(=O)O)O2)c(=O)[nH]c1=O (stereo unspecified)
not listed: SF-295 CNS | SK-MEL-28 melanoma | LOX IMVI melanoma | T-47D breast
> 100 µM: all other assays above

Cc1nc2ccc(S(=O)(=O)Nc3ccccc3Cl)cc2c(=O)n1NC(=O)CNc1ccccc1Cl
not listed: A498 renal | RXF 393 renal | SK-MEL-5 melanoma | T-47D breast
> 100 µM: all other assays above

CN(C)C=Nc1c(Br)cc(Br)c2nonc12
not listed: U251 CNS | BT-549 breast | LOX IMVI melanoma
> 100 µM: all other assays above
